Series [1] has as its system Bifidobacterium longum subsp. infantis ATCC 15697 strain. In words: Cell growth with each purified sugar as single carbon source (Bioscreen C). The series is classed as cell-based. The following applies: 5 g/L of each purified sugar, 37° C. As to the method:
In this case, as a culture composition, 10 g/L of BactoPeptone, 5 g/L of a yeast extract, 2 g/L of K2HPO4 anhydride, 5 g/L of Na acetate anhydride, 2 g/L of NH4 citrate tribasic, 0.2 g/L of Mg sulfate heptahydrate, 0.05 g/L of Mn sulfate, 1 mL/L of Tween 80 (polysorbate 80), 0.5 g/L of cysteine, and 5 g/L of each purified sugar were used and cultured at 37° C.

Series [2] shares this test system. Nature of the series: Agarotriose fermentation profile under test tube condition. The series is classed as cell-based. The following applies: 5 g/L agarotriose as carbon source. As to the method: In order to monitor fermentation products, a Bifidobacterium longum subsp. Infantis ATCC 15697 strain was cultured under a test tube condition.
For series [3], the system named is crude enzyme solution of a Bifidobacterium longum subsp. infantis ATCC 15697 strain. Nature of the series: Degradation experiment using crude enzyme solution. The series is classed as biochemical. The following applies: 2 mg/mL crude enzyme, 2 mg/mL substrate, 30° C., pH 7.0, 2 hours. As to the method: In order to confirm the metabolic pathway of agarotriose, an experiment was performed on a crude enzyme solution of a Bifidobacterium longum subsp. infantis ATCC 15697 strain. For this purpose, cells and the medium were separated by centrifugation (14,000 rpm, 5 minutes, 4° C.) of a culture solution of Bifidobacterium longum subsp. infantis ATCC 15697 cultured under an agarotriose condition. An extracellular crude enzyme was obtained by ammonium sulfate precipitation of a supernatant. Further, for a cell-free extract including an intracellular crude enzyme, a supernatant crude enzyme was obtained by re-suspending cells in a 20 mM Tris-HCl buffer, and then lysing the cells by sonication, and centrifuging the lysate. During the crude enzyme experiment, 2 mg/mL of the crude enzyme and 2 mg/mL of agarotriose as a substrate were used to perform a reaction under an enzymatic reaction condition of 30° C. and 200 rpm in a 20 mM Tris-HCl buffer (pH 7.0) for 2 hours.

Another series deals with B. bifidum DSM 20082. In words: Fermentation ability of agarotriose as single carbon source. The series is classed as cell-based. On the procedure:
(§1) In order to confirm whether agarotriose also had prebiotic effects on probiotic microorganisms other than a Bifidobacterium longum subsp. infantis ATCC 15697 strain, Bifidobacterium longum subsp. infantis ATCC 17930, Bifidobacterium longum subsp. infantis ATCC 15702, B. bifidum DSM 20082, and B. kashiwanohense DSM 21854 were cultured under agarotriose single carbon source conditions.

For series [4], the system named is B. kashiwanohense DSM 21854. Described as above. The series is classed as cell-based. On the procedure: as §1
The test system of series [5] is Bifidobacterium longum subsp. infantis ATCC 15702. The description is as above. The series is classed as cell-based. On the procedure:
as §1

In series [6] the test system is Bifidobacterium longum subsp. infantis ATCC 17930. The series is described as above. The series is classed as cell-based. On the procedure: as §1
Series [7] can be described thus: Stability test against artificial gastric juice. The series is classed as in vitro ADME. Conditions: 37° C., 3 hours, TLC and HPLC. The text has this:
In order to test whether agarotriose could reach the intestines without being degraded, agarotriose was reacted in artificial gastric juice for each time, and then it was confirmed whether agarotriose was degraded, using TLC and HPLC.

The source of these data is patent US20220241349A1, “METHOD FOR PRODUCING MARINE ALGAE-DERIVED AGAROTRIOSE, AND USE THEREOF AS PREBIOTIC” (Korea University Research and Business Foundation, priority 2017, published 2022).

For the molecule `OC[C@H]1O[C@@H](O[C@H]2[C@H]3OC[C@@H]2O[C@@H](O[C@@H]2[C@@H](O)[C@H](O)O[C@H](CO)[C@@H]2O)[C@H]3O)[C@H](O)[C@@H](O)[C@H]1O` [agarotriose], the “fermentation (cell growth) of the sugar as single carbon source” value in series [1] was “selectively fermented”. Further, the “fate of the sugar during fermentation” value in series [2] was “degraded agarotriose into galactose and neoagarobiose”. The “degradation of the substrate by crude enzyme” value in series [3] is “degrading agarotriose into galactose and neoagarobiose occurred in the cell-free extract”. The metabolism of agarotriose entry in the series with B. bifidum DSM 20082 was “metabolized agarotriose and degraded agarotriose into galactose and neoagarobiose”; in series [4], “metabolized agarotriose and degraded agarotriose into galactose and neoagarobiose”; in series [5] it was “metabolized agarotriose and degraded agarotriose into galactose and neoagarobiose”; in series [6], “metabolized agarotriose and degraded agarotriose into galactose and neoagarobiose”. For the same molecule, the agarotriose remained in series [7] is given as not below 80%.
Turning to `OC[C@H]1OC(O)[C@H](O)[C@@H](O[C@@H]2O[C@H]3CO[C@@H]([C@@H]2O)[C@@H]3O)[C@H]1O` (stereo partly shown) [neoagarobiose, reference compound], the “fate of the sugar during fermentation” value in series [2] was “secreted and accumulated outside the cells without being degraded in the cells any more”. The “degradation of the substrate by crude enzyme” value in series [3] is given as “not exhibited”.
